Drawing on a melting point compilation (Tetko et al.; mined from patent text by program, amines drawn as free bases though some values may be those of a salt), this text covers melting point for 85 molecules.

Molecules are shown by their SMILES.

For the molecule `CC(=O)OCc1c(-c2cc(Nc3cc4n(n3)CCN(C)C4)c(=O)n(C)n2)cccc1-n1ncc2cc(C(C)(C)C)cc(F)c2c1=O`, the melting point (usually the temperature, or range, at which the solid turns liquid) was in the range of 188 to 193 °C.

`Oc1cccc(-c2c3ccccc3c(Br)c3sc4ccccc4c23)c1` showed a melting point of 110 to 111 °C.

On to `CCOC(=O)c1cn(C2CC2)c2nc(N3CCC(n4ccnn4)CC3)c(F)cc2c1=O`, for which the melting point lay within 213 to 214 °C.

Molecule `Brc1cc(Br)c(COCc2cc(Br)c(Br)cc2Br)cc1Br` came in with a melting point of 162 to 164 °C.

Take `Oc1ccc2c(c1CNc1ccc(F)cc1F)CCCO2`: the melting point lay within 120 to 121 °C.

`COc1ccc(CN2C(=O)C3(COc4cc5c(cc43)OCCO5)c3ccccc32)cn1` (stereo not given) had a melting point of 161 to 162 °C.

The molecule `O=C(O)c1cc2cc([N+](=O)[O-])ccc2[nH]c1=O` displayed a melting point above 310 °C.

`CCOC(=O)c1nn(-c2ccc(N(C)C)cc2)c(=O)c2c(N)scc12` came in with a melting point of 211 to 213 °C.

Molecule `COCc1c(S(C)(=O)=O)ccc(C(=O)O)c1C` came in with a melting point of 129 to 131 °C.

With `CC(C)CCNCCOc1ccc2ccccc2c1`, the melting point is 91 °C.

As for `COc1ccc(C(=Cc2cc3c(cc2[N+](=O)[O-])OCO3)C(=O)O)cc1`, the melting point was in the range of 184 to 185 °C.

Regarding `COc1cc(OC)c(C23CC4CC(CC(C4)C2)C3)cc1C=O`, the melting point lay within 152 to 154 °C.

The molecule `OCCc1cc2c(cc1Cc1ccccc1)OCO2` had a melting point of 64 to 65 °C.

On to `C#CC(=CC(=O)O)c1ccccc1`, for which the melting point worked out at 130 °C.

Take `CCOP(=O)(Cc1ccc(NC(=O)CCc2cnoc2-c2ccccc2)cc1)OCC`: the melting point lay in the range of 139 to 140 °C.

Regarding `Cc1nnc2n1-c1sc(C#CCn3c4c(c5ccccc53)CCCC4)cc1C(c1ccccc1Cl)=NC2`, the melting point was in the range of 164 to 166 °C.

On to `Nc1cc(Cl)c(Sc2cccc3cnccc23)cc1N`, for which the melting point is 200 to 203 °C.

Turning to `O=C(O)CCC(=O)N[C@H]1C[C@H](C(=O)O)Nc2cc(Cl)cc(Cl)c21` (relative stereo), the melting point lay in the range of 221 to 223 °C.

For `Oc1cc2c(cc1-c1nc3cc(Cl)ccc3o1)oc1ccccc12`, the melting point lay in the range of 244 to 246 °C.

On to `COc1ccc(CNc2ccc(C#N)cc2F)cc1`, for which the melting point came out at 113 °C.

`Cc1nc(-c2ccccc2)nc(OCC(=O)Nc2ccccc2)c1C`: the melting point lay within 212 to 213 °C.

`COc1ccnc(CCc2nc3cc(-c4ccc(S(=O)(=O)N(C)c5ccc(Cl)cc5)cc4)cnc3[nH]2)c1` registered a melting point of 191 to 192 °C.

`CCCCCCCCNC(=O)Nc1ccccc1C(=O)NC1CCN(C(c2ccccc2)c2ccccc2)CC1` came in with a melting point of 149 to 151 °C.

`Cc1ccc(S(=O)(=O)NC(=O)C(C)c2ccc3cc(OCc4ccc5ccccc5n4)ccc3c2)cc1` (stereo not given): the melting point was 201 to 205 °C.

Take `CCCCC(CC)C(=O)C=P(c1ccccc1)(c1ccccc1)c1ccccc1` (stereo not given): the melting point was in the range of 106 to 108 °C.

In the case of `COc1cc(C(=O)CN2CCN(c3ccncc3)CC2)ccc1OCC(=O)O`, the melting point fell in the range of 218 to 224 °C.

For the molecule `OCCSCc1ccc(-c2ccc(CSCCO)cc2)cc1`, the melting point came to 152 °C.

On to `O=[N+]([O-])c1cnc(Sc2nnc(O)n2C2CCCCC2)s1`, for which the melting point fell in the range of 237 to 239 °C.

With `CCCC(C)C(=O)Nc1cccc(O)c1` (stereo not given), the melting point was 136 to 137 °C.

For the molecule `CC(C)Nc1nc2c(F)c(F)c(F)cc2n1[C@@H]1O[C@H](C)[C@@H](O)[C@H]1O`, the melting point was 148 to 151 °C.

With `CCCN(Cc1ccc(-c2ccccc2-c2nc(=O)o[nH]2)cc1)c1nc(C)ncc1C(=O)OCC`, the melting point was 176 to 177 °C.

`O=C(NCc1cncc(F)c1)c1ccc(S(=O)(=O)n2cc(-c3ccccc3)c3ccccc32)cc1` gave a melting point of 131 °C.

In the case of `COc1ccc(C)cc1NC(=O)Nc1ccc2c(c1)CCN(C(=O)Oc1ccc(CCO)cc1Cl)C2`, the melting point is 95 to 98 °C.

The molecule `Cc1c(F)ccc([N+](=O)[O-])c1Cl` came in with a melting point of 37 to 39 °C.

For `CC1=C(C(=O)OC(C)C)C(c2cccc([N+](=O)[O-])c2)n2c(cc(=O)n2Cc2ccccc2)N1` (stereo not given), the melting point lay in the range of 184 to 185 °C.

Molecule `COc1ccc(CN(C)CCCc2ccc(NC(=O)c3cccc4c(=O)c5cccc(OC)c5[nH]c34)c(C)c2)cc1OC` had a melting point of 154 °C.

`O=c1[nH]c2cc(F)c(F)cc2c(=O)n1CCCN1CC=C(c2ccc(Cl)cc2)CC1` displayed a melting point of 204 to 205 °C.

`COC(=O)NCCc1ccc(C(=O)OC)c(S(N)(=O)=O)c1` gave a melting point of 146 to 149 °C.

Regarding `Nc1cc(F)c(F)c(Br)c1Cl`, the melting point was 83 to 86 °C.

`COc1ccc(Cl)cc1-n1c(-c2cc(C(F)(F)F)cc(C(F)(F)F)c2)n[nH]c1=O` came in with a melting point of 206 to 207 °C.

In turn, `CC(C)(C)OC(=O)CC(O)c1ccc(Cl)nc1NC(=O)C(C)(C)C` (stereo not given) came in with a melting point of 130 to 132 °C.

As for `CCC1(CO)CCCN2CCC3=c4ccccc4=NC3=C21` (stereo not given), the melting point lay within 111 to 113 °C.

`O=C(O)C1=Cc2cc(OC(F)(F)F)ccc2OC1C(F)(F)F` (stereo not given): the melting point was in the range of 118 to 120 °C.

The molecule `COc1ccccc1C(=O)N1CCN(C(=O)CN2CCC(O)(c3ccccc3)CC2)C(c2ccc(Cl)c(Cl)c2)C1` (racemic) showed a melting point of 112 to 114 °C.

For the molecule `CCCCCCc1oc(C=Cc2ccccc2)nc1C(=O)O`, the melting point is 133 to 134 °C.

In turn, `CCCNC(=O)COC1c2ccccc2C(=O)N1c1ccc2ccc(OC)nc2n1` (stereo not given) gave a melting point of 174 °C.

For `O=C(/C=C/c1ccc(S(=O)(=O)N2CCN(C(c3ccc(F)cc3)c3ccc(F)cc3)CC2)cc1)NO`, the melting point was 125 to 126 °C.

In turn, `Cc1ccc2c(c1)C(CCCCN1CCN(c3cccc(Cl)c3)CC1)C(=O)N2` (stereo not given) displayed a melting point of 122 to 124 °C.

On to `Cc1nc2n(c1CN(C)C)-c1ccc(Cl)cc1C(c1ccccc1Cl)=NC2`, for which the melting point lay in the range of 191 to 194 °C.

Turning to `CC(C)(C)NS(=O)(=O)c1ccccc1C(O)c1ccccc1` (stereo not given), the melting point is 160 °C.

Turning to `COc1ccc(S(=O)(=O)C(C)(CC=Cc2ccccc2)C(=O)NO)cc1` (stereo not given), the melting point fell in the range of 162 to 164 °C.

`O=C1C(c2ccccc2)=C(c2ccccc2)C(=O)N1c1ccc(Cl)cc1` displayed a melting point of 198 to 199 °C.

`Cc1ncc(CN2CCc3cc(-c4cc(Cl)cc(Cl)c4)ccc3C2)c(N)n1` showed a melting point of 205 to 211 °C.

As to `CC(=O)N1CCN(C(=O)c2nc(-c3ccccc3)c(-c3ccc(=O)n(C(C)C)n3)s2)CC1`, the melting point was 78 to 82 °C.

Regarding `COCOc1ccc(CCCOc2nn(C)cc2CC(=O)O)c(Oc2ncc(C(F)(F)F)cc2Cl)c1`, the melting point was in the range of 122 to 123 °C.

The molecule `CCC(C)(C)OC(=O)NC(C)(Cc1c[nH]c2ccccc12)C(=O)NCCc1cccnc1` (stereo not given) came in with a melting point of 95 to 105 °C.

With `O=C(c1ccccc1)N(c1ccccc1)c1ccc(OCc2ccccc2)cc1`, the melting point is 141 to 143 °C.

`C#Cc1cc(Nc2ncnc3cnc(NC(=O)/C=C/CN(C)C)cc23)ccc1Cl` gave a melting point of 173 to 176 °C.

Turning to `CC1(C)OCC(C(CS(=O)(=O)c2ccc(-c3ccc(C(F)(F)F)cc3)cc2)N(O)C=O)O1` (stereo not given), the melting point lay in the range of 204 to 205 °C.

Turning to `CC(=O)Nc1nc2n(n1)Cc1ccccc1-2`, the melting point was 258 to 259 °C.

Molecule `CCCOc1ccc(S(=O)(=O)NCc2ccncc2)cc1-c1nc2cc(N)c([N+](=O)[O-])cc2c(=O)[nH]1` registered a melting point of 157 to 160 °C.

Regarding `Oc1ccc(Nc2nc(NCc3ccco3)nc(Nc3ccc(Br)cc3)n2)cc1`, the melting point lay in the range of 37 to 39 °C.

The molecule `CC1Nc2ccccc2-c2c([N+](=O)[O-])cnn21` (stereo not given) had a melting point of 173 to 175 °C.

Molecule `CC(CCCc1ccccc1)Oc1cc(O)c2c(c1)CC(C)(C)CC2C(N)=O` (stereo not given) displayed a melting point of 155 to 157 °C.

The molecule `CN(C)Cc1ccc(Cc2cnc(N[N+](=O)[O-])[nH]c2=O)cc1` came in with a melting point of 214 to 217 °C.

The molecule `COC1(c2ccc(Sc3ccc4c(c3)CCC(=O)N4C)s2)CCOCC1` returned a melting point of 84 to 86 °C.

`CN(C)CCNC(=O)c1ccc(Br)cc1` registered a melting point of 67 to 69 °C.

In the case of `CCc1c2c(nn1CC)c(N)nc1cc(OC)ccc12`, the melting point lay within 210 to 211 °C.

Molecule `C=C(C)CNc1cc(C(=O)O)cc(S(N)(=O)=O)c1Sc1ccc(N)cc1` came in with a melting point of 237 to 240 °C.

`CC(C)c1nccn1S(=O)(=O)c1c[nH]cn1`: the melting point lay in the range of 118 to 120 °C.

On to `O=C(O)c1cn(C2COC2)c2c(F)c(N3CCCC3)c(F)cc2c1=O`, for which the melting point was in the range of 261 to 262 °C.

Take `Clc1ccc(-c2[nH]c3c(Cl)cc(Cl)cc3c2Cl)cc1`: the melting point fell in the range of 148 to 149 °C.

Molecule `Cc1ccc2c(CCNCC#N)c[nH]c2c1` had a melting point of 92 °C.

With `O=Cc1ccccc1-c1ccc(C(=O)Nc2ccc3cccnc3c2)cc1`, the melting point lay within 258 to 260 °C.

In turn, `O=[N+]([O-])c1ccc(C2=NNC(=S)Cc3cc4c(cc32)OCO4)cc1` gave a melting point of 257 to 258 °C.

On to `COC(=O)c1ccnc(Cl)c1N`, for which the melting point was 91 to 92 °C.

Turning to `OCc1cccc(Nc2nc(Oc3ccccc3)nc(Oc3ccccc3Cl)n2)c1`, the melting point was in the range of 52 to 54 °C.

`CCN(CC)c1ccc(-c2cc(-c3ccc(C(=O)O)cc3)ccc2CCCN)cc1C(C)(C)C` gave a melting point of 272 °C.

The molecule `O=c1[nH]c(=Cc2ccc(OCc3ccccc3)cn2)c(=O)[nH]c1=Cc1ccccn1` returned a melting point of 248 to 250 °C.

As to `CC(C)CC(=O)c1cc2ccncc2[nH]1`, the melting point lay in the range of 215 to 218 °C.

Take `CCOC(=O)c1cn(C2CC2)c2nc(N3CCC(NC(C)=O)C3)c(F)cc2c1=O` (stereo not given): the melting point lay within 246 to 248 °C.

In the case of `c1ccc2c(c1)Cn1cccc1C1(CCNCC1)O2`, the melting point was in the range of 168 to 170 °C.

`c1ccc(Cn2ccnc2-c2nnn[nH]2)cc1` yielded a melting point of 274 to 275 °C.

On to `COc1ccc(CNc2cc(C(c3cc(F)ccc3F)S(=O)(=O)c3ccc(Cl)cc3)c(Cl)cn2)cc1OC` (stereo not given), for which the melting point is 204 to 206 °C.

Molecule `Oc1ccc(C(O)CN2CCN(C(c3ccccc3)c3ccccc3)CC2)cc1` (stereo not given) registered a melting point of 154 °C.
